A word on the IC50: it is the midpoint of a concentration-inhibition curve.

In this assay the target is T1, human TRPC6 (Homo sapiens, UniProt Q9Y210).
T1 construct: expressed in transfected cells
T1 sequence (Q9Y210 1-931): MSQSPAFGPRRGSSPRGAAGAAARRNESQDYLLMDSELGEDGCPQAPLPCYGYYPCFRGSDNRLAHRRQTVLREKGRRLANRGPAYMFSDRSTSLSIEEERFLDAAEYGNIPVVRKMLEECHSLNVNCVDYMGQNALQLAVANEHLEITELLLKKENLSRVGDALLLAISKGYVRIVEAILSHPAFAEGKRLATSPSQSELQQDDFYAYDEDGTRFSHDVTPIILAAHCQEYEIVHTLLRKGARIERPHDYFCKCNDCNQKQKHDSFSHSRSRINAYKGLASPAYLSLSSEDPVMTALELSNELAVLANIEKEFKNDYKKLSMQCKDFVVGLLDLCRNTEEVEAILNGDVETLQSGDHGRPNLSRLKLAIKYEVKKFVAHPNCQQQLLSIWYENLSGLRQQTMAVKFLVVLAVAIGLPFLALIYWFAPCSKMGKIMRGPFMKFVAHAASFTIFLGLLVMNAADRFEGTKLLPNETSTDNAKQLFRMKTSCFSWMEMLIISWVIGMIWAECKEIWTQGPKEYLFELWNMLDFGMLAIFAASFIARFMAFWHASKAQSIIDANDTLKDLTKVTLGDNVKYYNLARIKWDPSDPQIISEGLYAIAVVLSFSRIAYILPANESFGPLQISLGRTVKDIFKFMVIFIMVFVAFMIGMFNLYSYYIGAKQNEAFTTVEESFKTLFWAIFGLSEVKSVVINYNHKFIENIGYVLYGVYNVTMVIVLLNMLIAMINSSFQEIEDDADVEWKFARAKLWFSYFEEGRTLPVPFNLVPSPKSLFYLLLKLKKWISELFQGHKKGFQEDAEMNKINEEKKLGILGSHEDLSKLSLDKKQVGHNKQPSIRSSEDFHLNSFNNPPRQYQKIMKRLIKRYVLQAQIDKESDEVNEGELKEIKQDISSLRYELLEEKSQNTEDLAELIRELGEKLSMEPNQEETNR
Description: High throughput screening assay: Fluo4/AM calcium fluorescence in HEK293/TREx cells expressing human TRPC6, agonist GSK1702934A (single concentration 10 μM and IC50 curves). The following applies: antagonist effect against human TRPC6, 7 concentrations 20 μM to 0.027 μM, triplicate. It counts as cell-based. The text has this: High Throughput Screening Assay
This screening assay measures human TRPC6 (transient receptor potential cation channel, subfamily C, member 6) ion channel activation via addition either of the commercially available DAG ligand analogue OAG (1-oleoyl-2-acetyl-sn-glycerol) or of the TRPC6 agonist 1-[1-(4,5,6,7,8-pentahydrocyclohepta[2,1-d]thiophen-2-ylcarbonyl)-4-piperidyl]-3-hydrobenzimidazol-2-one (GSK1702934A). The assay utilizes a fluorescent calcium sensor 4-(6-Acetoxymethoxy-2,7-difluoro-3-oxo-9-xanthenyl)-4′-methyl-2,2′-(ethylenedioxy)dianiline-N,N,N′,N′-tetraacetic acid tetrakis(acetoxymethyl) ester (Fluo4/AM) dye from Molecular Devices. Changes (increases) in intracellular calcium concentration as measured by the fluorescent signal increase provide a measurement of channel activity.
The commercially available HEK293/TREx line (Invitrogen) was stably transfected with a human TRPC6 construct and screened by conventional calcium imaging to find clones with human TRPC6 expression following stimulation with 1 μg/ml tetracycline. These cells were maintained in the growth medium recommended by the manufacturer supplemented with 100 μg/ml hygromycin to promote retention of the human TRPC6 construct. After growing to near confluency, cells were plated at a density of ^˜35,000 cells/well in 384 well CellBind plates (Corning) in the presence of 1 μg/ml tetracycline, and allowed to grow for 20-30 hrs. A nearly confluent monolayer resulted. Growth media was removed from the wells and cells were then loaded with […] Fluo4/AM diluted in Ringer's Solution (6.5 g NaCl, 0.42 g KCl, 0.25 g CaCl2) and 0.2 g of sodium bicarbonate; pH 7.4) supplemented with 1% Pluronic F-127 to a final concentration of 0.5 μM and incubated for 60 min, at room temperature. Dye solution was then removed from the cells by inverting plates with a sharp flick, and replaced with 25 μl Ringer's. Following ^˜0.5 hour for recovery from loading, cells were assayed using the Hamamatsu FDSS 6000 system, which permitted illumination at 485 nm. Frames were acquired at a rate of 0.2 Hz. During the assay, the plates were continuously vortexed, with pipette mixing of wells following addition of each reagent. For the screening assay, 26 μl of a diluted compound stock (at 50 μM) was added to each well for 2 minutes following the collection of a short (4 frame) baseline. 13 μl of agonist solution consisting of 125 nM GSK1702934A diluted in high-Ca2+Ringer solution (containing 90 mM Ca2+) was then added to each well, achieving a final concentration of 20 mM Ca2+ and 10 μM test compound. Data was collected for ^˜3 minutes following addition of high Ca2+Ringer. The fluorescent intensity observed at a particular timepoint for each well was divided by the initial fluorescent intensity for that well and the overall response was determined by averaging the resulting fluorescent ratio of the last 4 frames acquired during the experiment excepting the final frame. Negative and Positive controls were included on each plate. Negative controls wells consisted of HEK293/TREx TRPC6 cells exposed to assay buffer and agonist solution, but no test compound. Positive control consisted of wells consisted of HEK293/TREx TRPC6 cells exposed to 25 μM 3-[(2-chlorophenoxy)methyl]phenyl piperidyl ketone (Chembridge) diluted in Ringer's solution and agonist solution. These controls defined zero percent and 100 percent block respectively, and intensity of each well was normalized to these values.
Compounds were tested in triplicate at all concentrations. Standard software was used to fit IC50 curves.
In the case of `COc1cc(C(=O)N2CCC(c3ccc(N)nn3)CC2)ncc1-c1ccc(OC(F)(F)F)cc1` [Compound 31, [4-(6-Amino-pyridazin-3-yl)-piperidin-1-yl]-[4-methoxy-5-(4-trifluoromethoxy-phenyl)-pyridin-2-yl]-methanone], the IC50 worked out at 94 nM.

On to `COc1cc(C(=O)N2CCC(c3nnc(N)cc3C)CC2)ncc1-c1ccc(C(F)(F)F)cc1` [Compound 88, [4-(6-Amino-4-methyl-pyridazin-3-yl)-piperidin-1-yl]-[4-methoxy-5-(4-trifluoromethyl-phenyl)-pyridin-2-yl]-methanone], for which the IC50 turned out to be 280 nM.

For `COc1cc(C(=O)N2CCN(c3cnc(N)cc3C)C[C@@H]2CO)ncc1-c1ccccc1` [Compound 94, [(R)-4-(6-Amino-4-methyl-pyridin-3-yl)-2-hydroxymethyl-piperazin-1-yl]-(4-methoxy-5-phenyl-pyridin-2-yl)-methanone], the half-inhibitory concentration (IC50) came to 27 nM.

For the molecule `CCc1ccc(-c2ccc(C(=O)N3CCC(c4ccc(N)nn4)CC3)cc2)cc1` [Compound 2, [4-(6-Amino-pyridazin-3-yl)-piperidin-1-yl]-(4′-ethyl-biphenyl-4-yl)-methanone], the concentration for half-maximal inhibition (IC50) was 2000 nM.

As to `COc1cc(C(=O)N2C[C@@H]3C[C@H]2CN3c2ccc(N)nn2)ccc1-c1ccc(C(F)(F)F)cc1` [Compound 115, [(1S,4S)-5-(6-Amino-pyridazin-3-yl)-2,5-diaza-bicyclo[2.2.1]hept-2-yl]-(2-methoxy-4′-trifluoromethyl-biphenyl-4-yl)-methanone], the 50% inhibitory concentration (IC50) came to 250 nM.

`COc1cc(C(=O)N2CCC(c3ccc(N)nn3)CC2)ncc1-c1ccccc1` [Compound 32, [4-(6-Amino-pyridazin-3-yl)-piperidin-1-yl]-(4-methoxy-5-phenyl-pyridin-2-yl)-methanone]: the IC50 worked out at 110 nM.

Regarding `COc1cc(C(=O)N2CCC(c3ccc(N)nn3)CC2)ccc1-c1ccc(C(F)(F)F)nc1` [Compound 59, [4-(6-Amino-pyridazin-3-yl)-piperidin-1-yl]-[3-methoxy-4-(6-trifluoromethyl-pyridin-3-yl)-phenyl]-methanone], the IC50 came out at 640 nM.

For `COc1cc(C(=O)N2CCC(c3ccc(N)nn3)CC2)ncc1-c1ccc(OCC2CC2)c(Cl)c1` [Compound 18], the IC50 came out at 2700 nM.

Turning to `COc1cc(C(=O)N2CCC(c3ccc(N)nn3)CC2)ncc1-c1ccc(C)c(F)c1` [Compound 34, [4-(6-Amino-pyridazin-3-yl)-piperidin-1-yl]-[5-(3-fluoro-4-methyl-phenyl)-4-methoxy-pyridin-2-yl]-methanone], the concentration for half-maximal inhibition (IC50) came out at 100 nM.

Turning to `COc1cc(C(=O)N2CCN(c3ccc(N)nc3)C[C@@H]2CO)ncc1-c1ccccc1` [Compound 91, [(R)-4-(6-Amino-pyridin-3-yl)-2-hydroxymethyl-piperazin-1-yl]-(4-methoxy-5-phenyl-pyridin-2-yl)-methanone], the half-inhibitory concentration (IC50) was found to be 300 nM.

Consider `C[C@@H]1CN(C(=O)c2ccc(-c3ccc(C(F)(F)F)cc3)cc2)CCN1c1ccc(N)nc1` [Compound 113, [(R)-4-(6-Amino-pyridin-3-yl)-3-methyl-piperazin-1-yl]-(4′-trifluoromethyl-biphenyl-4-yl)-methanone], for which the IC50 is 2800 nM.

Consider `COc1cc(C(=O)N2CCC(c3ccc(N)nn3)CC2)ncc1-c1cccc(F)c1` [Compound 35, 6-{1-[5-(3-Fluorophenyl)-4-methoxypyridine-2-carbonyl]piperidin-4-yl}pyridazin-3-amine], for which the half-inhibitory concentration (IC50) turned out to be 220 nM.

As for `COc1ccc(-c2cnc(C(=O)N3CCC(c4ccc(N)nn4)CC3)cc2OC)cc1` [Compound 28, [4-(6-Amino-pyridazin-3-yl)-piperidin-1-yl]-[4-methoxy-5-(4-methoxy-phenyl)-pyridin-2-yl]-methanone], the IC50 was 190 nM.

As for `COc1cc(C(=O)N2CCC(c3ccc(N)nn3)CC2)ccc1-c1ccc(OC(C)C)cc1` [Compound 57, [4-(6-Amino-pyridazin-3-yl)-piperidin-1-yl]-(4′-isopropoxy-2-methoxy-biphenyl-4-yl)-methanone], the IC50 was 320 nM.
